Legend:
Assay type in all cases: physicochemical
[1] = Free bromine in electrolyte with chloroquat or bromoquat (Example 8); settings: 0.84 M zinc bromide, 0.8 M quat, 1.44 M bromine; stirred 24 hrs at 35° C.
Protocol: Chloride ions are added to the electrolyte in amounts sufficient to reduce the amount of free bromine present and increase the electrolyte conductivity during charging of the cell, Chloride ions in the electrolyte may come from zinc chloride or quaternary ammonium chloride complexing agent. Experiment 1 of Example 8: An aqueous electrolyte system was prepared having 0.84 M zinc bromide, 0.8 M chioroquat (N-methyl, N-butyl pyrrolidinium chloride) and 1.44 M bromine. After the sample was stirred for 24 hrs at 35° C., the amount of free bromine present in the electrolyte was 0.26%. Experiment 2 of Example 8: An aqueous electrolyte system was prepared having 0.84 M zinc bromide, 0.8 M bromoquat (N-methyl, N-butyl pyrrolidinium bromide) and 1.44 M bromine. After the sample was stirred for 24 hrs at 35° C., the amount of free bromine present in the electrolyte was 0.25%.

[2] = Measurement of free bromine in aqueous phase; settings: stirred 24 hrs, top aqueous phase, wt %
Source text: The forward operation of a bromine-containing battery generally involves the conversion of elemental bromine to ionic bromine. The quat/Br2 complex results from an equilibrium reaction in which the Br2 is released from the complex as the concentration of free Br2 in the aqueous electrolyte drops during battery operation. In its fully charged state, the electrolyte solution inevitably contains some degree of uncomplexed bromine. A measure of a quat's ability to complex elemental bromine is the amount of elemental bromine left in solution when the complexation reaction proceeds to equilibrium. Such bromine is referred to as “free bromine.” Measurement of free bromine in aqueous phase is set forth in Example 1.
Two slightly different methods were used to prepare the electrolyte compositions, A) one containing 0.7M quat and B) the other containing 0.8M quat. In composition A, 2.0 moles of bromine was added to an aqueous solution containing 0.5 moles of zinc bromide and 0.7 moles of the quat. The two-phase mixture was stirred for 24 hrs. and then the phases were allowed to settle. The top aqueous phase was sampled for free bromine measurement. In composition B, 1.44 moles of bromine was added to an aqueous solution containing 0.5 moles of zinc bromide, 0.4 moles of zinc chloride and 0.8 moles of the quat. The top aqueous phase obtained after stirring for 24 hrs. was used for free bromine measurement.
A 250-ml Erlenmeyer flask was charged with 50 ml of deionized water and weighed (A). A sample of the clear aqueous phase was passed through glass wool to remove any suspended organic phase and then added to the Erlenmeyer flask. The flask was weighed again (B) and the difference in weight (B-A) was noted as the weight of the sample. About 20 ml of 20% potassium iodide solution followed by about 5 ml of starch solution was added to the flask. The resulting dark mixture was titrated against 0.02N sodium thiosulfate solution. The end-point was the disappearance of purple color. Free bromine (wt %) was calculated in the following manner:
Wt % free Br2=Volume (ml) of sodium Thiosulfate×Normality of Sodium thisosulfate/Sample Weight.

[3] = Cloud point determination; settings: 0.7M quat in 2.5M zinc bromide water solution
Protocol: By “cloud point” is meant the cloud point of an aqueous solution containing 0.7 M complexing agent and 2.5 M zinc bromide.
A 0.7M quaternary ammonium bromide in 2.5M Zinc Bromide water solution was prepared. • 2. The solution was transferred to a jacketed flask with a stirring bar and temperature monitor. • 3. The solution was warmed to 15° C. above the expected cloud point. If necessary, any moisture or impurities were removed by filtration. • 4. The solution was stirred, with speed adjustment to about 250 rpm, while avoiding the formation of bubbles. • 5. The solution was cooled gradually (cooling rate of about 1° C./5 min). • 6. The sample was inspected carefully for signs of cloudiness, and the temperature at which cloudiness was observed was recorded to the nearest 0.1° C.

[4] = 0.8M quat (composition B: 1.44 moles bromine, 0.5 moles zinc bromide, 0.4 moles zinc chloride, 0.8 moles quat)
[5] = 0.7M quat (composition A: 2.0 moles bromine, 0.5 moles zinc bromide, 0.7 moles quat)

Row | SMILES | Free Br2 [2, 4] | Solubility in ZnBr2 Cloud Point [3] | Free Br2 [2, 5] | also measured
1 | CCCC[N+]1(C)CCCC1.[Cl-] [chioroquat, N-methyl, N-butyl pyrrolidinium chloride] | – | – | – | amount of free bromine present in the electrolyte [1]: 0.26%
2 | CC[N+]1(CC)CCCCC1.[Br-] [Compound 9, Diethyl Piperidinium Bromide] | 0.8M 0.26% | 0.7M, 11.9 C. | – | Free Br2 ([2]; 0.8M quat (composition B: 1.44 moles bromine, 0.5 moles zinc bromide, 0.4 moles zinc chloride, 0.8 moles quat), listed as compound 9): 0.26%
3 | CCC[N+]1(CC)CCCCC1 [Compound 10, EthyPropyl Piperidinium Bromide] | 0.8M 0.026% | 0.7M, 45.8 C. | – | Free Br2 ([2]; 0.8M quat (composition B: 1.44 moles bromine, 0.5 moles zinc bromide, 0.4 moles zinc chloride, 0.8 moles quat), listed as compound 10): 0.026%
4 | CC[N+](CC)(CC)CCOC.[Br-] [Compound 2, (2-methoxyethyl)-triethylammonium bromide] | 0.8M 0.467% | 0.7M, <-10.5 C. | 0.7M 0.658% | –
5 | CCC[N+](CC)(CC)CC.[Br-] [Compound 5, triethylpropylammonium bromide] | – | 0.7M, 41.2 C. | 0.7M 0.089% | Free Br2 ([2]; 0.7M quat (composition A: 2.0 moles bromine, 0.5 moles zinc bromide, 0.7 moles quat), listed as compound 5): 0.089%
6 | CCCC[N+]1(C)CCCC1.[Br-] [bromoquat, N-methyl, N-butyl pyrrolidinium bromide] | – | – | – | amount of free bromine present in the electrolyte [1]: 0.25%
7 | CC[N+](C)(CC)CCOC.[Br-] [Compound 4, diethylmethyl-(2-methoxyethyl)ammonium bromide] | – | 0.7M, <-10.5 C. | 0.7M 0.70% | –
8 | CCCC[N+](C)(C)CCOC.[Br-] [Compound 1, Dimethylbutylether Quat Bromide] | – | 0.7M, 29 C. | 0.7M 0.28% | –

Source: patent US20170237129A1, “Quaternary Ammonium Halides With Ether Functional Groups For Use As Battery Electrolytes” (Albemarle Corporation, priority 2014, published 2017)
